Experimental data published in PMC3779521 (Organic letters, 2013).

System: CazF
Type: biochemical
Conditions: propargyl donor at MT domain; co-substrate acetoacetyl-SNAC (4)

Q: How did the Km turn out when `C#CC[Se+](CC[C@H](N)C(=O)O)C[C@H]1O[C@@H](n2cnc3c(N)ncnc32)[C@H](O)[C@@H]1O` (stereo partly drawn) [compound 2, propargylic Se-adenosyl-L-methionine] was run?
A: Its Km is 43.6 µM.
